Drawing on ChEMBL document CHEMBL5291721, “A preclinical secondary pharmacology resource illuminates target-adverse drug reaction associations of marketed drugs” (Nat Commun, 2023), this text covers AC50 for ten molecules.

Each structure is given as a SMILES string.

Experiment [1] addresses T1, 5-hydroxytryptamine receptor 2C (Homo sapiens, UniProt P28335).
T1 sequence (P28335 whole entry): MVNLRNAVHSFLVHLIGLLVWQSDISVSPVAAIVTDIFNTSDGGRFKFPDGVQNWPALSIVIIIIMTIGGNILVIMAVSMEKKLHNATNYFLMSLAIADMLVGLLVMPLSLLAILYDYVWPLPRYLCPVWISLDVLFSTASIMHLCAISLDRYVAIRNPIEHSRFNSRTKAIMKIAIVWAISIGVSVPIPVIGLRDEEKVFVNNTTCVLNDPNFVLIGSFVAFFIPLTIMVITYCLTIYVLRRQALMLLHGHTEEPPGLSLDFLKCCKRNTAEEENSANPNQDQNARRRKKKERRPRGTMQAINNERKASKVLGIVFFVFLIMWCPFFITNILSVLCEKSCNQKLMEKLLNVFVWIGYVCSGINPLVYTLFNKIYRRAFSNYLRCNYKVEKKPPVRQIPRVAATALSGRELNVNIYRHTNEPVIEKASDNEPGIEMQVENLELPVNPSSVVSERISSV

Experiment [2] addresses Glutamate receptor ionotropic, NMDA 1 (Rattus norvegicus, UniProt P35439).
Experiment [3] concerns the target T2, Type-1 angiotensin II receptor (Homo sapiens, UniProt P30556).
T2 sequence (P30556 whole entry): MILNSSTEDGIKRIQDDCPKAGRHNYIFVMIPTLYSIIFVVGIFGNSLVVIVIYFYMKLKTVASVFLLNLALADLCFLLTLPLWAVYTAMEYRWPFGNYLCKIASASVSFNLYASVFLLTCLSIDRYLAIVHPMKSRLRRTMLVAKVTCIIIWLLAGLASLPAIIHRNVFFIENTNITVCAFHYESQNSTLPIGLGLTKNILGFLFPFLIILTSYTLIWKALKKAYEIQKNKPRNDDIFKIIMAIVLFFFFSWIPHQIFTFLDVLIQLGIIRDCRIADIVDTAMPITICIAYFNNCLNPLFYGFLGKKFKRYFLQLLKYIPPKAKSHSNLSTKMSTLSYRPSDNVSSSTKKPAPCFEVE

The target of a further experiment is D(3) dopamine receptor (Homo sapiens, UniProt P35462).
Sequence of D(3) dopamine receptor (P35462 whole entry): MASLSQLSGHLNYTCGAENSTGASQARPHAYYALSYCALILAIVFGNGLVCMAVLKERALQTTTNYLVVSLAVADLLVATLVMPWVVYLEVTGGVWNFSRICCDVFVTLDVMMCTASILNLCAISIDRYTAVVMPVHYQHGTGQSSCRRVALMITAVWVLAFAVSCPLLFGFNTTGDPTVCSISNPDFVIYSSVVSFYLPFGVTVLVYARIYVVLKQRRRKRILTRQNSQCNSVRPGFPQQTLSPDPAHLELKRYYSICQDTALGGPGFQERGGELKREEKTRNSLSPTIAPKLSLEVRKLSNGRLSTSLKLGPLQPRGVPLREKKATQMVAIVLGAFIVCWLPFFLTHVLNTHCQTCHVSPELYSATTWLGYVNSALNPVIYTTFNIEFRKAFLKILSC
For experiment [4], the target named is cGMP-inhibited 3',5'-cyclic phosphodiesterase 3A (Homo sapiens, UniProt Q14432). The experiment is classed as functional.
Sequence of cGMP-inhibited 3',5'-cyclic phosphodiesterase 3A (Q14432 whole entry): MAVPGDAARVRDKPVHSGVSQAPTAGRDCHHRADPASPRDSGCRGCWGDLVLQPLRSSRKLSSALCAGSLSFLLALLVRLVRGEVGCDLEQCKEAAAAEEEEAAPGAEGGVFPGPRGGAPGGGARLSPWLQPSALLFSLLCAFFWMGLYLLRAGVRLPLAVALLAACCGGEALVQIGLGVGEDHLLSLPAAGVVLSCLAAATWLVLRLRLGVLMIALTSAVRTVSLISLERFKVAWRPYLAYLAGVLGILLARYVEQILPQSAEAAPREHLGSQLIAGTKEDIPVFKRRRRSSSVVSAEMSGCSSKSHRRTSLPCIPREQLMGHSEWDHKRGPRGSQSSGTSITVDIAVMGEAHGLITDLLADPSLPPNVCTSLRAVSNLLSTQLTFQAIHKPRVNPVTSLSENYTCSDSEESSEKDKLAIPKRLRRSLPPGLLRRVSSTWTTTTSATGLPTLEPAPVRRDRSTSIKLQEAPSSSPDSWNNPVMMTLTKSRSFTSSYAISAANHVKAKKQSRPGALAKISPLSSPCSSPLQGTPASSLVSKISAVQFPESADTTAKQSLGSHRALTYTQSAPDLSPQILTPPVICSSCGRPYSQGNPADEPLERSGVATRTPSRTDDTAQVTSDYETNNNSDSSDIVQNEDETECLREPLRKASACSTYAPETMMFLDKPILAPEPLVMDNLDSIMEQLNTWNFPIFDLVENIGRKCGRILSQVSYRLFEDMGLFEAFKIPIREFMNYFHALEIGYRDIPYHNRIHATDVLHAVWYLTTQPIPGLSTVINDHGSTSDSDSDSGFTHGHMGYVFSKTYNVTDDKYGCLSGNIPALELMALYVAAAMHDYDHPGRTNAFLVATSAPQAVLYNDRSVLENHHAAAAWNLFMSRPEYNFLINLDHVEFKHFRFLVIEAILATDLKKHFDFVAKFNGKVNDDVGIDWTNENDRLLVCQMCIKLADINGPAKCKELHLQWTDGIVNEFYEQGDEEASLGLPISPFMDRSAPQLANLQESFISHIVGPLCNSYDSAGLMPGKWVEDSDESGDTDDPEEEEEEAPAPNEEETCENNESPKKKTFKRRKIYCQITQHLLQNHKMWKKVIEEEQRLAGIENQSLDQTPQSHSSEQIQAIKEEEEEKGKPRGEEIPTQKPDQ
Experiment [5] has as its target Sodium-dependent noradrenaline transporter (Homo sapiens, UniProt P23975).
The target in another experiment is T3, Thromboxane A2 receptor (Homo sapiens, UniProt P21731).
T3 sequence (P21731 whole entry): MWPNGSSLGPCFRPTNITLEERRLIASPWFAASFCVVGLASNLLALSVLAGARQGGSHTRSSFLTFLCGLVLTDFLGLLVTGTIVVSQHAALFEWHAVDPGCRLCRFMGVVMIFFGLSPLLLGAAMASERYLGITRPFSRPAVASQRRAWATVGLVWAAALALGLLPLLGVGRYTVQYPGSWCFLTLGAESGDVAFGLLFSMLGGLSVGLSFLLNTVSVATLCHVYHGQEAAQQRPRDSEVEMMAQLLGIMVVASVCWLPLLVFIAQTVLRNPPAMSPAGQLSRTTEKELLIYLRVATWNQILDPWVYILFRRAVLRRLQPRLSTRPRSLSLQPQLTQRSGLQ

For another experiment, the target named is T4, B2 bradykinin receptor (Homo sapiens, UniProt P30411).
T4 sequence (P30411 whole entry): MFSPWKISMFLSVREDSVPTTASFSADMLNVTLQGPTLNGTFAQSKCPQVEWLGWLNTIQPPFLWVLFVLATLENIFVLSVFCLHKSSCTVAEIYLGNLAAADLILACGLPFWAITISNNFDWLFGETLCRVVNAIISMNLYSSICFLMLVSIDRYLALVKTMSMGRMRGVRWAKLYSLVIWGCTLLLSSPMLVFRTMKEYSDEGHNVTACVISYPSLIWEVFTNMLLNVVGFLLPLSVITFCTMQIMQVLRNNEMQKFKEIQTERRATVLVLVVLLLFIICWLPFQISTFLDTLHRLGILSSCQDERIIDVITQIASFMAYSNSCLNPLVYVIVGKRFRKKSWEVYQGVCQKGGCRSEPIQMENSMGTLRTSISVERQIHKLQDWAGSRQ

Experiment [6] addresses Delta-type opioid receptor (Homo sapiens, UniProt P41143).
Experiment [7] has as its target T5, Cholecystokinin receptor type A (Homo sapiens, UniProt P32238).
T5 sequence (P32238 whole entry): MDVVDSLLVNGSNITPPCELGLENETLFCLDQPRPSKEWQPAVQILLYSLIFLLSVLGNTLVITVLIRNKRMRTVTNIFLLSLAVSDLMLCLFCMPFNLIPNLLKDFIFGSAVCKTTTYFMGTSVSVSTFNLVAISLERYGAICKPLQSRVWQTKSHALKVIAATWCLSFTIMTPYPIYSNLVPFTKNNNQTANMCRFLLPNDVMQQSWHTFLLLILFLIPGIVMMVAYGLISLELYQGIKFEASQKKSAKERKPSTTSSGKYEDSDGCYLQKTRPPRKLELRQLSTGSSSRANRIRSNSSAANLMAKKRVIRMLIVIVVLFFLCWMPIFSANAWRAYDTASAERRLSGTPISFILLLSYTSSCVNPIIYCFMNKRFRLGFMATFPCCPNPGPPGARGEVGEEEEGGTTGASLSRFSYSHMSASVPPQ

Experiment [8] has as its target T6, 5-hydroxytryptamine receptor 3A (Homo sapiens, UniProt P46098).
T6 sequence (P46098 whole entry): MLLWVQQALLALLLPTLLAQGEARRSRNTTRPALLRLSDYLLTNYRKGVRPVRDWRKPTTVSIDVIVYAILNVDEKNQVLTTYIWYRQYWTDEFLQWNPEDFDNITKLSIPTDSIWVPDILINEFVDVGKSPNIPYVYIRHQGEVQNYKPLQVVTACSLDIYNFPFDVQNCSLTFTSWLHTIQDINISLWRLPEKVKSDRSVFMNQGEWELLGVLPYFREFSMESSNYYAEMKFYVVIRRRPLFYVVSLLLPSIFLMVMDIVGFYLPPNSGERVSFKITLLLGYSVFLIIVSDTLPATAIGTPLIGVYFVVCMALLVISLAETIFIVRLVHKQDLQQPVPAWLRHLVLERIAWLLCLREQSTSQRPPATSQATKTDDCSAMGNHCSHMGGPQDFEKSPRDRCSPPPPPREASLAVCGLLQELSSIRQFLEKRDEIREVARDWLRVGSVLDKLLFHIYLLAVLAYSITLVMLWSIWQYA
The class given is functional.

Experiment [9] deals with Sodium-dependent dopamine transporter (Homo sapiens, UniProt Q01959).
Sequence of Sodium-dependent dopamine transporter (Q01959 whole entry): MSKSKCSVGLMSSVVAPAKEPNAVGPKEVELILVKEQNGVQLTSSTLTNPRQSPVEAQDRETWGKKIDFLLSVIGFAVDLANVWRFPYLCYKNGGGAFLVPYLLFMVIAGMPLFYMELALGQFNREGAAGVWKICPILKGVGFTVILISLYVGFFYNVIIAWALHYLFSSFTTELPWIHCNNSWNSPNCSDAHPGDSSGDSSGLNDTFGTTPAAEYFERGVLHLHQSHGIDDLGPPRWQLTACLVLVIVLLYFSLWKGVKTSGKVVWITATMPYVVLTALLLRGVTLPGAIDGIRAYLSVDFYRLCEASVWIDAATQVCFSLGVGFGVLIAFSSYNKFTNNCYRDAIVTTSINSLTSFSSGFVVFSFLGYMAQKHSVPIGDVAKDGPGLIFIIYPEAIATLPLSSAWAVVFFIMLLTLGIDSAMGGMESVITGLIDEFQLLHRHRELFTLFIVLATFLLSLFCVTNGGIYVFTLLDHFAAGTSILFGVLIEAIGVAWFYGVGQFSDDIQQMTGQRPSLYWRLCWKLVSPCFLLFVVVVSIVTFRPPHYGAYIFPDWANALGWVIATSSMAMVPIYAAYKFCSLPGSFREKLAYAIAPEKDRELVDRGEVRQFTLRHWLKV
The target in another experiment is Vasopressin V2 receptor (Homo sapiens, UniProt P30518).
Sequence of Vasopressin V2 receptor (P30518 whole entry): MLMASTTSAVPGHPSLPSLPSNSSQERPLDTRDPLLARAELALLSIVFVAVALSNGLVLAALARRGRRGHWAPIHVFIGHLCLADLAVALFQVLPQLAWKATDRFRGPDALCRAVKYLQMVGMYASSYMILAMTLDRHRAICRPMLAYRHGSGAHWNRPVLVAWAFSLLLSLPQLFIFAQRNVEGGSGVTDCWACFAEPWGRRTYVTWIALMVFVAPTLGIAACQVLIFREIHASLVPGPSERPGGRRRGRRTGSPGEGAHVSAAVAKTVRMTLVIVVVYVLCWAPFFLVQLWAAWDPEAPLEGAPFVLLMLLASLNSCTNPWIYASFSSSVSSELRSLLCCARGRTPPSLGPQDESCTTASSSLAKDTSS
Also: assay procedure not described here.

Sequence of Delta-type opioid receptor (P41143 whole entry): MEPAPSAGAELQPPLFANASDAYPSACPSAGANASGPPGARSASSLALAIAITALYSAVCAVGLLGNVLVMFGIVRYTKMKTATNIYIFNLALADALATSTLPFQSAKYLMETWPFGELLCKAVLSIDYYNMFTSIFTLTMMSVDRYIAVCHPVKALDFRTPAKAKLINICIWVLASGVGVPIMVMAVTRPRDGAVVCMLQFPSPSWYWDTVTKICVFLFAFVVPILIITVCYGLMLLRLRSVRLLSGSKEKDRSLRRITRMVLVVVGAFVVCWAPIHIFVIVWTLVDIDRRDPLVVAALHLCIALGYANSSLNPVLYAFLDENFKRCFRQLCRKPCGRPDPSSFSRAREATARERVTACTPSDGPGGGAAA
Sequence of Sodium-dependent noradrenaline transporter (P23975 whole entry): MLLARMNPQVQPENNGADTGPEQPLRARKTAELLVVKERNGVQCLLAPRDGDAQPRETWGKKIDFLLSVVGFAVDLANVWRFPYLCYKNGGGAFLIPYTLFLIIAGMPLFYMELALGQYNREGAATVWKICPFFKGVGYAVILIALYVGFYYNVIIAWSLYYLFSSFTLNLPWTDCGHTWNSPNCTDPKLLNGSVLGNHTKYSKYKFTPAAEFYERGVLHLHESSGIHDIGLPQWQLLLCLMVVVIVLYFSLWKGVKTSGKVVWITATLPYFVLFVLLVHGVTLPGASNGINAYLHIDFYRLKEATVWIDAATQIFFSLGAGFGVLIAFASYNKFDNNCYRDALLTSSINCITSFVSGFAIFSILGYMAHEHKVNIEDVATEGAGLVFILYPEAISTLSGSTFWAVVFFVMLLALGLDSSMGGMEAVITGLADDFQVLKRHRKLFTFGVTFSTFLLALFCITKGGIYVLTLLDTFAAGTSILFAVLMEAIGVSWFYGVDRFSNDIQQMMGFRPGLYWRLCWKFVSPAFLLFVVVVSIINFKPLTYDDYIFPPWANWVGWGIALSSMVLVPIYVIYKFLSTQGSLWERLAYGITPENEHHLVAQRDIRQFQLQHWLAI

With `Cc1cc2cc3c(C)cc(=O)oc3c(C)c2o1` [TRIOXSALEN], the AC50 was over 30 µM in experiment [1]; over 10 µM in experiment [2]; over 10 µM in experiment [3]; over 30 µM on D(3) dopamine receptor; over 30 µM in experiment [4]; over 10 µM in [5]. In addition, the AC50 is over 10 µM at Thromboxane A2 receptor; over 10 µM at B2 bradykinin receptor; over 30 µM in experiment [6]; over 10 µM in experiment [7]; over 30 µM in [8]; over 10 µM in experiment [9]. At Vasopressin V2 receptor, the AC50 was over 10 µM.

On to `Clc1ccc(C(Cn2ccnc2)OCc2ccsc2Cl)c(Cl)c1` (stereo not given) [TIOCONAZOLE], for which the AC50 was over 30 µM in experiment [1]; over 30 µM in experiment [2]; over 30 µM in experiment [3]; 24 µM on D(3) dopamine receptor; 17 µM in experiment [4]; 20.7 µM in experiment [5]. Also, the AC50 on Thromboxane A2 receptor is 28.1 µM; at B2 bradykinin receptor it was over 3 µM; in experiment [6], 3.2 µM; in [7] it was over 30 µM; in experiment [8] it was over 30 µM; in [9], 10.6 µM. Also, the AC50 on Vasopressin V2 receptor was over 30 µM.

With `CN1CCN(C2=Nc3ccccc3Oc3ccc(Cl)cc32)CC1` [LOXAPINE], the AC50 was 0.029 µM in experiment [1]; over 10 µM in [2]; over 30 µM in [3]; 0.032 µM at D(3) dopamine receptor; over 30 µM in experiment [4]; 1.53 µM in experiment [5]. Moreover, the AC50 at Thromboxane A2 receptor was over 30 µM; at B2 bradykinin receptor it was over 30 µM; in experiment [6] it was 8.51 µM; in experiment [7] it was over 30 µM; in [8], 0.38 µM; in experiment [9] it was over 10 µM. This molecule also showed an AC50 on Vasopressin V2 receptor of over 30 µM.

With `Clc1ccc2c(N3CCN(CCCN4CCN(c5ccnc6cc(Cl)ccc56)CC4)CC3)ccnc2c1` [PIPERAQUINE], the AC50 in experiment [1] was over 30 µM; in [2], over 30 µM; in experiment [3], over 30 µM; on D(3) dopamine receptor, 9 µM; in experiment [4], 4.7 µM; in experiment [5], over 30 µM. Also, the AC50 (at Thromboxane A2 receptor; at B2 bradykinin receptor; in experiment [6]; in [7]; in [8]; in experiment [9]) was over 30 µM throughout. The molecule also showed an AC50 at Vasopressin V2 receptor of over 30 µM.

In the case of `CN1CCC(=C2c3ccccc3CCc3cccnc32)CC1` [AZATADINE], the AC50 was 3.1 µM in experiment [1]; over 10 µM in experiment [2]; over 30 µM in experiment [3]; over 10 µM on D(3) dopamine receptor; over 30 µM in experiment [4]; over 30 µM in [5]. Also, the AC50 (on Thromboxane A2 receptor; at B2 bradykinin receptor; in experiment [6]; in [7]; in experiment [8]; in [9]) was over 30 µM each time. The molecule further returned an AC50 at Vasopressin V2 receptor of over 30 µM.

For `CCOC(=O)C1=C[C@]2(CC)CCCN3CCc4c(n1c1ccccc41)[C@@H]32` [VINPOCETINE], the AC50 in [1] is over 30 µM; in [2], over 30 µM; in experiment [3] it was over 30 µM; on D(3) dopamine receptor it was 23 µM; in experiment [4] it was over 30 µM; in [5] it was over 30 µM. Besides, the AC50 is over 30 µM at Thromboxane A2 receptor; over 30 µM at B2 bradykinin receptor; over 30 µM in experiment [6]; over 30 µM in experiment [7]; over 30 µM in experiment [8]; 21 µM in [9]. The AC50 on Vasopressin V2 receptor is over 30 µM.

Turning to `Cc1cccc(N2CC(CO)OC2=O)c1` (stereo not given) [TOLOXATONE], the AC50 (in [1]; in experiment [2]; in experiment [3]; at D(3) dopamine receptor; in experiment [4]; on Thromboxane A2 receptor) was over 30 µM throughout. The AC50 (at B2 bradykinin receptor; in experiment [7]; in [8]; in [9]; on Vasopressin V2 receptor) was over 30 µM in each case.

With `OC1(c2ccc(Cl)cc2)c2ccccc2C2=NCCN21` (stereo not given) [MAZINDOL], the AC50 in experiment [1] is over 30 µM; in experiment [2], over 30 µM; in experiment [3], over 30 µM; on D(3) dopamine receptor it was over 30 µM; in [4] it was over 30 µM; in experiment [5], 0.027 µM. Moreover, the AC50 (on Thromboxane A2 receptor; at B2 bradykinin receptor; in experiment [6]; in [7]; in experiment [8]; at Vasopressin V2 receptor) was over 30 µM each time.

On to `CN(C)CCCNc1c2ccccc2nc2cccc([N+](=O)[O-])c12` [NITRACRINE], for which the AC50 in experiment [1] was 2.7 µM; in [2] it was over 30 µM; in experiment [3], over 30 µM; on D(3) dopamine receptor, 9.8 µM; in [4] it was over 30 µM; in experiment [5] it was over 30 µM. The AC50 (at Thromboxane A2 receptor; on B2 bradykinin receptor; in experiment [7]; in experiment [8]; in experiment [9]; at Vasopressin V2 receptor) was over 30 µM throughout.

With `CCOC(=O)c1cncn1[C@H](C)c1ccccc1` [ETOMIDATE], the AC50 in experiment [1] was over 30 µM; in experiment [2] it was over 10 µM; in experiment [3] it was over 10 µM; on D(3) dopamine receptor, over 30 µM; in [4] it was over 30 µM; in [5], over 10 µM. Moreover, the AC50 was over 10 µM on Thromboxane A2 receptor; over 10 µM on B2 bradykinin receptor; over 30 µM in experiment [6]; over 10 µM in experiment [7]; over 10 µM in experiment [9]; over 10 µM at Vasopressin V2 receptor.
